Assays:
[1] = molecular target: glucocorticoid receptor (GR) (Homo sapiens, UniProt P04150); experiment: biochemical
Excerpt: The binding of the substances to the glucocorticoid receptor (GR) and other steroid hormone receptors (mineral corticoid receptor (MR), progesterone receptor (PR) and androgen receptor (AR)) is examined with the aid of recombinantly produced receptors. Cytosol preparations of Sf9 cells, which had been infected with recombinant baculoviruses that code for the GR, are used for the binding studies.

[2] = molecular target: T1, mineral corticoid receptor (MR) (Homo sapiens, UniProt P08235); experiment: Binding to the mineral corticoid receptor, recombinantly produced receptor
T1 construct: made in house
T1 sequence (P08235 1-984): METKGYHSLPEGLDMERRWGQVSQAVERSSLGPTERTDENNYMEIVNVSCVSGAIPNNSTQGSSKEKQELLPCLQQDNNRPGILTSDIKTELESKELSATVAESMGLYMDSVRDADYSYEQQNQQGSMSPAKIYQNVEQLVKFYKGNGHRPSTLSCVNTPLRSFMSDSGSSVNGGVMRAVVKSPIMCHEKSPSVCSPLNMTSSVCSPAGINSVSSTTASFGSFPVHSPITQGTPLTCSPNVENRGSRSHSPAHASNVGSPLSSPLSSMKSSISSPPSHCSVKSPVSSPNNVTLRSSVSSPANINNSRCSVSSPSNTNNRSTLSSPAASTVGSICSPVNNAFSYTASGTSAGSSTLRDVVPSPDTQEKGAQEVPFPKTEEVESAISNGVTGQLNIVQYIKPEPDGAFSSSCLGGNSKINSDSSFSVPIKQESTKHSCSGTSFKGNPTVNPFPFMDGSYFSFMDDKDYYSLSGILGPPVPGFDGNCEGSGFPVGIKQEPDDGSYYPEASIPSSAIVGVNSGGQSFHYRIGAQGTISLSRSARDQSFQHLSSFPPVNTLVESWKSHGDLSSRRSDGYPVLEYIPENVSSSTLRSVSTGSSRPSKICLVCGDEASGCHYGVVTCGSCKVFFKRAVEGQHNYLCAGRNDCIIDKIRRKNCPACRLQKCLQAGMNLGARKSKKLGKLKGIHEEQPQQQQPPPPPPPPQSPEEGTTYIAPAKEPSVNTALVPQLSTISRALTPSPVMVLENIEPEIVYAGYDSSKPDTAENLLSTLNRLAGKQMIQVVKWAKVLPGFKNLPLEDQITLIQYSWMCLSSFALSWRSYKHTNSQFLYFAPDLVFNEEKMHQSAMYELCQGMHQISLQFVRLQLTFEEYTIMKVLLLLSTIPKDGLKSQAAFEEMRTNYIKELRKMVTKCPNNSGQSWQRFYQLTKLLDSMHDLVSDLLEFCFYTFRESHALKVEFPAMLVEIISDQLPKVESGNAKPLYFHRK

[3] = molecular target: T2, progesterone receptor (PR) (Homo sapiens, UniProt P06401); experiment: Binding to the progesterone receptor, recombinantly produced receptor
T2 construct: made in house
T2 sequence (P06401 1-933): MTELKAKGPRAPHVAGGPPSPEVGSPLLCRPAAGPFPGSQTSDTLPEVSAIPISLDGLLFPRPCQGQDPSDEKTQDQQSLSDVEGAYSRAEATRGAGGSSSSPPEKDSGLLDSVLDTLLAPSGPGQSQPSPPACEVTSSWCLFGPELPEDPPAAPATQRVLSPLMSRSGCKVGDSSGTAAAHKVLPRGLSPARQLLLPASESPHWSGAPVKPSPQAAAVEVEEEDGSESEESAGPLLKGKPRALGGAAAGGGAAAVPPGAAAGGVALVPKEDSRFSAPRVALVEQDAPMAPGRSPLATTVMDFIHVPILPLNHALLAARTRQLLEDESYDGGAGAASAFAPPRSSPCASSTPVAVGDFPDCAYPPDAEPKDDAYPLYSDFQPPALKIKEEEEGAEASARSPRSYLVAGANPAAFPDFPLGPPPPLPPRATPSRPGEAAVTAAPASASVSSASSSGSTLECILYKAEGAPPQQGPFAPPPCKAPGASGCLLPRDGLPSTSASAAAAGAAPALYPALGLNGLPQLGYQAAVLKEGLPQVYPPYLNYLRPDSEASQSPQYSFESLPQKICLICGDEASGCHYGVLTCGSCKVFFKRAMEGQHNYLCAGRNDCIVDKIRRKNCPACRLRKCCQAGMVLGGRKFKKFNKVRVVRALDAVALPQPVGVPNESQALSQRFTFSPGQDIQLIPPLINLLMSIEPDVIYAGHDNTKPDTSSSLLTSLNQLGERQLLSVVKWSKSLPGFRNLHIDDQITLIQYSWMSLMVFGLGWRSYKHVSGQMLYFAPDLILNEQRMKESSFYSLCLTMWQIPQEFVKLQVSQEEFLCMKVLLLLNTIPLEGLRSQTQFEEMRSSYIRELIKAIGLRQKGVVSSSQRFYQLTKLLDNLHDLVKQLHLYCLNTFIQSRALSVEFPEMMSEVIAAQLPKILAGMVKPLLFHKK

[4] = molecular target: T3, androgen receptor (AR) (Homo sapiens, UniProt P10275); experiment: Binding to the androgen receptor, recombinantly produced receptor
T3 construct: made in house
T3 sequence (P10275 1-920): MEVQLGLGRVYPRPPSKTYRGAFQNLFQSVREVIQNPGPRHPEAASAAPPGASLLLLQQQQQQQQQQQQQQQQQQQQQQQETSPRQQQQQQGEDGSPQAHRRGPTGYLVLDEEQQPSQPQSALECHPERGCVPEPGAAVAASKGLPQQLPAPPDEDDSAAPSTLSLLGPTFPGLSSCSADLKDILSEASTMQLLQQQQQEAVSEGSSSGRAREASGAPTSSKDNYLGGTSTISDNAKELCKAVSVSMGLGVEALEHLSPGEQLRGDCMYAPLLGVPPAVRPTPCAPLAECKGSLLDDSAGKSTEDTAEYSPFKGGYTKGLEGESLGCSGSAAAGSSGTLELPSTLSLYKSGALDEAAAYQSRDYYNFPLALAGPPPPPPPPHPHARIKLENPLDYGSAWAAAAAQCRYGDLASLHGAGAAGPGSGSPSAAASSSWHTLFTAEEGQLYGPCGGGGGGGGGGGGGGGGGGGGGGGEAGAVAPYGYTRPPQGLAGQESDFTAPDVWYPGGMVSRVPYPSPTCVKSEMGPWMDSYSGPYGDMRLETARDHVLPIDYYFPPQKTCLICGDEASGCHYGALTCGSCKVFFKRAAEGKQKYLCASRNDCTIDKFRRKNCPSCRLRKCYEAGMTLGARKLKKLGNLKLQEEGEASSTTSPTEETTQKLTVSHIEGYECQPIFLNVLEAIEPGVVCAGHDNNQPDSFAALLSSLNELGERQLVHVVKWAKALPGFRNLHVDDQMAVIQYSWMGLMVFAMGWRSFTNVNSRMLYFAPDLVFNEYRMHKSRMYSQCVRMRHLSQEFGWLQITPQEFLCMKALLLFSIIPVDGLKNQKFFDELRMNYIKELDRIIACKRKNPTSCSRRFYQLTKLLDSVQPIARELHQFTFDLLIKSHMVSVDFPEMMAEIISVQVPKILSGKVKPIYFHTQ

Chain of glucocorticoid receptor (GR) (P04150 whole entry, species assumed): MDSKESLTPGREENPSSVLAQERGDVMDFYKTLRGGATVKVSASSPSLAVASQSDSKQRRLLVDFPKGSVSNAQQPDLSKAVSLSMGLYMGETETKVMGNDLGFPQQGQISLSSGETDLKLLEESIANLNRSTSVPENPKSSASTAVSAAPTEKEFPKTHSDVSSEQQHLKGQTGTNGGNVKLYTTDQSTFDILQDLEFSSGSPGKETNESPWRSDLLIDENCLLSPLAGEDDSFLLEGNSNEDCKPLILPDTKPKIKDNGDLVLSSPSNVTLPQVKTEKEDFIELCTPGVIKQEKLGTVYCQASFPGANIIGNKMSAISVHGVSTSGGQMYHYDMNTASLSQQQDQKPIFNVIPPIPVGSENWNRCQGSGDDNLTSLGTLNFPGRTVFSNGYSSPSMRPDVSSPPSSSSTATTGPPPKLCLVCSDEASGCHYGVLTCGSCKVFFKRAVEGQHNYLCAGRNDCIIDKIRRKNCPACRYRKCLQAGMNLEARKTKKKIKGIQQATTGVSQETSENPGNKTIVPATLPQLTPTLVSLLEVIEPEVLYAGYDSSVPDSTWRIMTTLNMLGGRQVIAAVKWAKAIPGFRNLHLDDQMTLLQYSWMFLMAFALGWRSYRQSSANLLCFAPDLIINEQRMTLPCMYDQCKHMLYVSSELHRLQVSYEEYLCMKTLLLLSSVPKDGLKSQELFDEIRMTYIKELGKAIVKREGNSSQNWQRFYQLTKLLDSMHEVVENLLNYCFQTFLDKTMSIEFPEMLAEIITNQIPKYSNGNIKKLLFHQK

IC50 [1]: 0.6 to 1.3 nM
IC50 [2]: > 1000 nM
IC50 [3]: > 1000 nM
IC50 [4]: > 1000 nM
SMILES: CC(C)(CC(O)(CNc1cccc2ncccc12)C(F)(F)F)c1cc(F)ccc1O (stereo not shown) [Example 4]

— patent US6897224B2, “Quinoline and isoquinoline derivatives, a process for their production and their use as inflammation inhibitors” (Schering AG, priority 2002, dated 2005)
